Test results as given in patent publication US12065468B2, “Heme-binding small peptide” (priority 2021, dated 2024).
Entries after “also recorded” stand apart in the source; their conditions may differ.

Tests used:
Sinorhizobium meliloti = assay: S. meliloti growth curve; assay type: cell-based; details: increasing amounts of peptide; minimal medium
Procedure: Growth curve: All growth curve experiments were performed in a Tecan SPARK 10M microplate reader using polystyrene flat bottomed, non-treated, sterile 96 well plates. Overnight cultures grown in LBMC were washed and were subcultured (1:100 dilution) in minimal medium supplemented with respective iron concentrations. The plates were programed to continuously shake at 150 rpm and temperature maintained at 30° C. Optical density was measured at 600 nm every 60 minutes.

Haemophilus influenzae = assay: Cell viability assay for H. influenzae; assay type: cell-based; details: 24 hours, BHI with 7.5 μM hemin
Procedure: Cell viability assays for H. influenza and P. gingivalis: Haemophilus influenzae Rd [KW20] was obtained from ATCC (51907). Standard growth and culturing techniques were followed as described previously^92. Cultures were grown in Brain Heart Infusion broth (BHI) supplemented with 7.5 μM of hemin and 2 μg/ml NAD with or without the addition of peptide for 24 hours. The number of viable cells for every reaction mixture was then determined by serially diluting and spotting 10-μl aliquots in triplicates on BHI agar plates supplemented with 15 μM hemin and 3 μM NAD. Porphyromonas gingivalis 2561 was obtained from ATCC (33277). Pre-reduced, anaerobically sterilized Brucella Broth and BRU—Brucella Blood Agar—were purchased from Anaerobe systems (CA, USA). They were opened just before use. Static cultures and plates were incubated at 37° C. in an incubation chamber from BD GasPak™ EZ Container Systems. Anaerobic conditions were maintained by using BD BBL CO2 gas generators and BD BB GasPak™ CO2 indicators. Cultures were grown anaerobically in Brucella Broth with or without addition of peptides for 48 hours and viable cells for every reaction mixture were then determined by serially diluting and spotting 10-μ1 aliquots in triplicates on Brucella Blood Agar.

Toxoplasma gondii = assay: T. gondii plaque assay on human foreskin fibroblasts; assay type: cell-based; details: 6 hr. pre-treatment of parasites
Procedure: Parasite and host cell culture: T. gondii parasites (strain RH, ATCC 50838) were grown in human foreskin fibroblasts (HFFs) maintained in DMEM (GIBCO) supplemented with 3% inactivated fetal calf serum (IFS) and 10 μg/mL gentamicin (Thermo Fisher Scientific), referred to as D3. Where noted, DMEM supplemented with 10% IFS and 10 μg/mL gentamicin was used, referred to as D10.
Plaque Assays: Freshly lysed parasites were filtered through 5 μm filters and spun down at 1000×g and 18° C. for 10 min. Parasites were resuspended to 6E6 parasites/mL in Fluorobrite™ media supplemented with 3% IFS. Parasites were incubated with either peptide or vehicle for 6 hours at 37° C. and 5% CO2. Parasites were then spun down, washed once in 2 mL of Fluorobrite™ supplemented with 3% IFS, and resuspended in 1 mL of media. 2000 parasites were inoculated into each well of 6-well plates of HFFs maintained in D10 and allowed to grow undisturbed for 9 days. Plates were washed with PBS and fixed for 10 min at room temperature with 100% ethanol. Monolayers were visualized by staining for 5 min at room temperature with crystal violet solution, followed by two washes with PBS, one wash with water, and drying overnight.

[1] = system: Human red blood cells (hRBC); assay: Haemolysis assay; assay type: cell-based; details: 1.5 h at 37° C., 4% hRBC; listed as L-NCR247
Procedure: Haemolysis assay: Standard methods of hemolysis assay as previously published was followed^96. Human red blood cells (hRBC) were washed three times with phosphate-buffered saline (PBS: 10 mM Na2HPO4, 1.76 mM K2HPO4, pH 7.4, containing […], and 2.7 mM KCl). Two-fold serial dilutions of the peptide solutions were then added to 50 μl aliquots of hRBC in PBS to adjust a final volume to 100 μl and hRBC concentration to 4% (v/v) in each well of a 96-well plate. The suspension was incubated for 1.5 h at 37° C. under stirring at 1000 rpm. The plates were centrifuged at 2000 g for 5 min. Supernatant aliquots of 50 μl were transferred into flat-bottomed 96-well microplates, and the release of hemoglobin was monitored by measuring the absorbance at 405 nm in a microplate reader. hRBC in PBS (0% lysis control) and 0.1% Triton X-100 (100% lysis control) were used as negative and positive controls, respectively. Hemolytic activity was expressed as a percentage of hemolysis calculated according to the following equation: Hemolysis (%)=(OD405nm sample—OD405nm 0% lysis control)/(OD405nm 100% lysis control−OD405nm 0% lysis control)*100.

Aβ (1-42)-heme complex = target: T1, Aβ (1-42)-heme complex (Homo sapiens, UniProt P05067); assay: Peroxidase assay of Aβ-heme complex on TMB; assay type: biochemical; details: equimolar addition of NCR247
T1 construct: equimolar addition of NCR247 to the Aβ (1-42) amyloid peptide-heme complex; purchased Genscript
T1 sequence (P05067 672-713 limits assumed, one chain of several): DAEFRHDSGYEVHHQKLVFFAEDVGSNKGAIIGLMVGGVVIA

S. meliloti = assay: Radioactive 55Fe uptake assay; assay type: cell-based, Sinorhizobium meliloti; details: 2 μM, medium with sufficient iron
Procedure: Iron uptake assay: Radioactive ^55Fe uptake assays were performed as described previously^66 with some modifications. Cells were grown in LB to an O.D.600 nm of 0.2. 20 ml cultures were then spun down, and suspended in 20 ml minimal media with 5 μM FeSO4 for 1 hour. 2 μM NCR247 and then 100 μM sodium ascorbate was added, and cells were incubated for additional 30 mins. At time 0, 1 μM^55FeCl3 mixed with ascorbate was added. At given time points, 1 ml aliquots were taken and quenched in 3 ml of ice-cold quench buffer (0.1M Tris, 1 mM ascorbate, and 100 μM FeSO4, pH 6.0). The cells were collected immediately after quenching on 0.45-μm filters, presoaked in quench buffer using a Millipore sigma 1225 vacuum filtration unit. The radioactive ^55Fe content of the filters with cells was counted using a scintillation counter. Internalized ^55Fe levels were normalized to the protein levels in the cell.

Caenorhabditis elegans = assay: C. elegans growth; details: in vivo
Source text: When grown in the lab, the widely-studied model nematode Caenorhabditis elegans normally acquires heme by ingesting bacteria and breaking them down to release heme. […] A new class of heme importer was identified in C. elegans by analyzing heme-responsive proteins and orthologs have been subsequently identified in other parasites such as the kinetoplastid parasite discussed above.

Z-ring (FtsZ-GFP) = assay: Z-ring formation, FtsZ-GFP fluorescent microscopy; assay type: cell-based, Sinorhizobium meliloti; details: 2 μM, 200 mins; listed as L-NCR247
Procedure: FIG. 15. […] Visualization of Z-ring formation during cell division by FtsZ-GFP labeled cells using fluorescent microscopy. Data indicates percentage of cells displaying fully formed Z-rings when synchronized and treated with upon treatment with 2 μM of L or D-NCR247 for 200 mins. […] Data are presented as average of three biological replicates ±s.d.
Since NCR247 treatment leads to gene expression change in several genes of the CtrA regulon, we investigated the CtrA regulon and the cell division inhibition role of NCR247. […] In addition, this phenotype is retained in a peptide transporter bacA mutant indicating cell division inhibition happens due to protein-peptide interaction outside the cytoplasm.

RNGCIVDPRCPYQQCRRPLYCRRR [NCR247]
inhibition of growth of S. meliloti (bacteriostatic effect) (Sinorhizobium meliloti): reduction in growth rate; also recorded: inhibits the growth of Sinorhizobium meliloti | growth / viable cell number of H. influenzae (Haemophilus influenzae): can prevent the growth; also recorded: can block the growth | growth / viable cell number of H. influenzae (Haemophilus influenzae; listed as L-NCR247): Reduction of viable cell number | capacity of T. gondii to form plaques (Toxoplasma gondii): massive reduction in the capacity of the parasite to form plaques | haemolytic activity [1]: did not detect haemolytic activities; also recorded: negligible hemolysis | peroxidase activity of Aβ (1-42)-heme complex (Aβ (1-42)-heme complex): quenches its peroxidase activity | uptake of 55Fe (S. meliloti): markedly increased the import of ^55Fe | growth of C. elegans (Caenorhabditis elegans): can block the growth; also recorded: blocks growth of the nematode C. elegans, arresting them in the L1 stage | formation of Z-ring (Z-ring (FtsZ-GFP)): results in inhibition of assembly of the Z-ring; also recorded: greatly reduced
